Results taken from patent publication US11878013B2, “Isoquinoline derivative, preparing method thereof, and pharmaceutical composition for preventing or treating autophagy related diseases containing the same as an active ingredient” (Korea Research Institute of Chemical Technology, priority 2021, dated 2024).

Legend:
[1] = tested on: Raw 264.7 mouse macrophages; assay: Cell viability of LPS-treated Raw 264.7 macrophages; format: cell-based
Protocol: (§1) Raw 264.7 mouse macrophages were aliquoted in a 96-well plate at the density of 1×10^5 cells/well and stabilized in a 37° C., 5% CO2 incubator for 24 hours. The Raw 264.7 cells were treated with the compound of Example 1 by concentration. After 1 hour, the cells were treated with 1 ug/ml of LPS and cultured for 24 hours. For the measurement of NO production, 40 mg/ml of Griess reagent was prepared and it was mixed with the culture supernatant at the same ratio. The mixture was reacted at room temperature for 15 minutes, and absorbance was measured at 540 nm. Based on the results obtained therefrom, the cell viability and NO production rate were expressed as percentages in terms of LPS.

NO production = NO production in LPS-treated Raw 264.7 macrophages (Griess reagent); format: cell-based, mouse
Protocol: In order to confirm the effect of the compound of Example 1 of the present invention on NO production in Raw 264.7 mouse macrophages in which inflammatory response was induced by LPS, an experiment was performed as follows.
as §1

[O-][S+](c1ccc(F)cc1)c1nccc2ccccc12 (stereo not shown) [Example 1, 1-((4-Fluorophenyl)Sulfinyl)Isoquinoline]
cytotoxicity ([1]; LPS-treated Raw 264.7, 0.1, 0.5, 1, 10 and 100 μM (FIG. 3)): no significant cytotoxicity
Cell viability (% of control) ([1]; LPS-treated Raw 264.7 cells, 24 hours, test concentration not given): 90 % of control
NO production (% of control) (NO production; 1 ug/ml LPS, 24 hours, Raw 264.7 cells, test concentration not given): 40 % of control
NO production (NO production; LPS-treated Raw 264.7, 0.1, 0.5, 1, 10 and 100 μM, effect increased with concentration (FIG. 3)): inhibited
